Among the data in patent US20160303102A1, “PROCESS FOR THE PRODUCTION OF DRUG FORMULATIONS FOR ORAL ADMINISTRATION” (Alrise Biosystems GmbH, priority 2013, published 2016) are Solubility and Solubility in water values, retold here.

The structures appear in SMILES notation. Converted amounts (≈) assume the structure as drawn. Counter-ions that a name gives are not always drawn. Marks after values point to notes of the source that are not given here.

A short description of data set [1]: Solubility of exemplary therapeutic agents in organic solvents.
Excerpt: In this context, the solubility is indicated as the weight of the dissolved substance (the solute) per volume of the solvent (i.e. the volume of solvent added to the solute).
For data set [2] the following is noted: 20° C.; cited from earlier work.

For `CN1C[C@H]2c3ccccc3Oc3ccc(Cl)cc3[C@@H]2C1` (relative stereo) [Asenapine maleate, (3aRS,12bRS)-rel-5-Chloro-2,3,3a,12b-tetrahydro-2-methyl-1H-dibenz[2,3:6,7]oxepino[4,5-c]pyrrole], the Solubility result in data set [1] (solvent Acetone), in data set [1] (solvent Benzylalcohol), in data set [1] (solvent DMSO), in data set [1] (solvent Dimethylcarbonate), in data set [1] (solvent EMK) and in data set [1] (solvent Ethanol) was “soluble” in each case. In addition, the Solubility result in data set [1] (solvent Ethyl acetate) is reported as “soluble”; in data set [1] (solvent Ethyl formate) it was “soluble”; in data set [1] (solvent Glycofurol) it was “soluble”; in data set [1] (solvent Iso propanol) it was “non-soluble”; in data set [1] (solvent Isopropyl acetate), “non-soluble”; in data set [1] (solvent Isopropyl formate), “soluble”. The Solubility entry in data set [1] (solvent Methyl acetate), in data set [1] (solvent NMP) and in data set [1] (solvent THF) was “soluble” in each case.

Consider `CC(C)=O` [Aceton], for which the Solubility in water entry in data set [2] is given as “soluble”.

For the molecule `O=C1CCc2ccc(OCCCCN3CCN(c4cccc(Cl)c4Cl)CC3)cc2N1` [Aripiprazole], the Solubility entry was “soluble” in data set [1] (solvent Acetone); “soluble” in data set [1] (solvent Benzyl benzoate); “soluble” in data set [1] (solvent Benzylalcohol); “soluble” in data set [1] (solvent DMSO); “soluble” in data set [1] (solvent EMK); “non-soluble” in data set [1] (solvent Ethanol). Also, the Solubility entry in data set [1] (solvent Ethyl acetate) was “soluble”; in data set [1] (solvent Ethyl formate), “soluble”; in data set [1] (solvent Glycofurol) it was “soluble”; in data set [1] (solvent Isopropyl acetate), “non-soluble”; in data set [1] (solvent Isopropyl formate), “soluble”; in data set [1] (solvent Methyl acetate), “soluble”. Moreover, the Solubility entry is listed as “soluble” in data set [1] (solvent NMP), “soluble” in data set [1] (solvent THF) and “non-soluble” in data set [1] (solvent Triacetin).

Turning to `CCCCOC=O` [Butyl formate], the Solubility in water entry in data set [2] is listed as “slow decomposition”.

On to `ClCCl` [Dichlormethan], for which the Solubility in water in data set [2] is 20 g/L (≈ 235 mM).

Consider `COC(=O)OC` [Dimethyl Carbonate], for which the Solubility in water in data set [2] is reported as 139 g/L (≈ 1540 mM).

Turning to `CNCC[C@H](Oc1cccc2ccccc12)c1cccs1` [Duloxetine HCl, (+)-(S)—N-Methyl-3-(naphthalen-1-yloxy)-3-(thiophen-2-yl)propan-1-amine], the Solubility entry in data set [1] (solvent Acetone) was “non-soluble”; in data set [1] (solvent Benzyl benzoate), “non-soluble”; in data set [1] (solvent Benzylalcohol), “soluble”; in data set [1] (solvent DMSO), “soluble”; in data set [1] (solvent EMK) it was “non-soluble”; in data set [1] (solvent Ethanol), “soluble”. Also, the Solubility result in data set [1] (solvent Ethyl acetate) is recorded as “non-soluble”; in data set [1] (solvent Ethyl formate), “non-soluble”; in data set [1] (solvent Glycofurol), “soluble”; in data set [1] (solvent Methyl acetate), “non-soluble”; in data set [1] (solvent Methyl benzoate), “non-soluble”; in data set [1] (solvent NMP), “soluble”. In addition, the values for the Solubility entry in data set [1] (solvent THF) and in data set [1] (solvent Triacetin) were “soluble” and “non-soluble”, respectively.

For `CCOC(C)=O` [Ethyl acetate], the Solubility in water in data set [2] is 85.3 g/L.

Consider `CCOC=O` [Ethyl formate], for which the Solubility in water in data set [2] is on record as 105*** g/L.

For the molecule `CC(C)OC=O` [Isopropyl formate], the Solubility in water result in data set [2] was “slow decomposition”.

Regarding `COC(C)=O` [Methyl acetate], in data set [2], the Solubility in water is on record as 319 g/L.

`CC(=O)C(C)C` [Methylisopropylketone]: in data set [2], the Solubility in water was 6 g/L (≈ 69.7 mM).

On to `OCCOCCN1CCN(C2=Nc3ccccc3Sc3ccccc32)CC1` [Quetiapine fumarate, 2-(2-(4-dibenzo[b,f][1,4]thiazepine-11-yl-1-piperazinyl)ethoxy)ethanol], for which the Solubility entry in data set [1] (solvent Acetone) is reported as “non-soluble”; in data set [1] (solvent Benzylalcohol), “soluble”; in data set [1] (solvent DMSO) it was “soluble”; in data set [1] (solvent EMK), “non-soluble”; in data set [1] (solvent Ethanol), “non-soluble”; in data set [1] (solvent Ethyl acetate), “non-soluble”. For the same molecule, the Solubility entry in data set [1] (solvent Ethyl formate) is “non-soluble”; in data set [1] (solvent Glycofurol), “soluble”; in data set [1] (solvent Methyl acetate), “non-soluble”; in data set [1] (solvent NMP) it was “soluble”; in data set [1] (solvent THF) it was “soluble”; in data set [1] (solvent Triacetin) it was “non-soluble”.

Turning to `O=C(c1ccc(OCCN2CCCCC2)cc1)c1c(-c2ccc(O)cc2)sc2cc(O)ccc12` [Raloxifene HCl, [6-hydroxy-2-(4-hydroxyphenyl)-benzothiophen-3-yl]-[4-[2-(1-piperidyl)ethoxy]phenyl]-methanone], the Solubility entry in data set [1] (solvent Acetone) was “non-soluble”; in data set [1] (solvent Benzyl formate), “non-soluble”; in data set [1] (solvent Benzylalcohol), “non-soluble”; in data set [1] (solvent DMSO), “soluble”; in data set [1] (solvent Dichloromethane), “non-soluble”; in data set [1] (solvent EMK), “non-soluble”. For the same molecule, the Solubility result in data set [1] (solvent Ethanol), in data set [1] (solvent Ethyl acetate), in data set [1] (solvent Ethyl formate), in data set [1] (solvent Isopropyl acetate), in data set [1] (solvent Isopropyl formate) and in data set [1] (solvent Methyl acetate) was “non-soluble” throughout. The Solubility entry in data set [1] (solvent NMP) is “soluble”; in data set [1] (solvent Propyl formate), “non-soluble”; in data set [1] (solvent THF) it was “non-soluble”.

With `CC(C)c1nc(N(C)S(C)(=O)=O)nc(-c2ccc(F)cc2)c1/C=C/[C@@H](O)C[C@@H](O)CC(=O)O` [Rosuvastatin Ca, (3R,5S,6E)-7-[4-(4-fluorophenyl)-2-(N-methylmethanesulfonamido)-6-(propan-2-yl)pyrimidin-5-yl]-3,5-dihydroxyhept-6-enoic acid], the Solubility entry was “soluble” in data set [1] (solvent Acetone); “soluble” in data set [1] (solvent Benzylalcohol); “soluble” in data set [1] (solvent DMSO); “soluble” in data set [1] (solvent EMK); “non-soluble” in data set [1] (solvent Ethanol); “soluble” in data set [1] (solvent Ethyl acetate). Besides, the Solubility entry in data set [1] (solvent Ethyl formate) is reported as “soluble”; in data set [1] (solvent Glycofurol), “soluble”; in data set [1] (solvent Isopropyl acetate) it was “non-soluble”; in data set [1] (solvent Isopropyl formate), “non-soluble”; in data set [1] (solvent Methyl acetate), “soluble”; in data set [1] (solvent NMP), “soluble”. Moreover, the Solubility result was “soluble” in data set [1] (solvent THF) and “non-soluble” in data set [1] (solvent Triacetin).

In the case of `CCCOC=O` [n- Propyl formate], in data set [2], the Solubility in water is 28 g/L.

On to `CCCOC(C)=O` [n-Propyl acetate], for which the Solubility in water in data set [2] is listed as 21.2 g/L.

Turning to `CC(=O)OC(C)(C)C` [tert. Butyl acetate], the Solubility in water entry in data set [2] is listed as “insoluble”.
